{"source": "ChEMBL document CHEMBL5360532", "about": "“Current scenario of quinolone hybrids with potential antibacterial activity against ESKAPE pathogens” (Eur J Med Chem, 2023)", "format_in_all_cases": "functional", "key": {"[1]": {"test_system": "Staphylococcus aureus", "experiment": "Antibacterial activity against methicillin resistant Staphylococcus aureus assessed as bacterial growth inhibition by two fold serial dilution assay"}, "[2]": {"test_system": "Pseudomonas aeruginosa", "experiment": "Antibacterial activity against Pseudomonas aeruginosa assessed as bacterial growth inhibition by two fold serial dilution assay"}, "[3]": {"test_system": "Staphylococcus aureus", "experiment": "Antibacterial activity against Staphylococcus aureus assessed as bacterial growth inhibition by agar cup diffusion method"}, "[4]": {"test_system": "Staphylococcus aureus", "experiment": "Antibacterial activity against Staphylococcus aureus AUMC B-73 assessed as bacterial growth inhibition by agar cup diffusion method"}, "[5]": {"test_system": "Staphylococcus aureus", "experiment": "Antibacterial activity against Staphylococcus aureus assessed as bacterial growth inhibition by broth microdilution assay"}, "[6]": {"test_system": "Staphylococcus aureus", "experiment": "Potency index, ratio of ciprofloxacin MIC to test compound MIC for antibacterial activity against Staphylococcus aureus assessed as bacterial growth inhibition by broth microdilution assay"}, "[7]": {"test_system": "Staphylococcus aureus", "experiment": "Antibacterial activity against Staphylococcus aureus ATCC 25923 assessed as bacterial growth inhibition measured after 16 hrs by broth microdilution assay"}, "[8]": {"test_system": "Staphylococcus aureus", "experiment": "Potency index, ratio of ciprofloxacin MIC to test compound MIC for antimicrobial activity against Staphylococcus aureus ATCC 25923 assessed as bacterial growth inhibition measured after 24 hrs by agar dilution assay"}, "[9]": {"test_system": "Mycobacterium tuberculosis", "experiment": "Antimycobacterial activity against multidrug Mycobacterium tuberculosis assessed as bacterial growth inhibition by LJ slant assay"}, "[10]": {"test_system": "Mycobacterium tuberculosis", "experiment": "Antimycobacterial activity against extensive drug Mycobacterium tuberculosis assessed as bacterial growth inhibition by LJ slant assay"}, "[11]": {"test_system": "Pseudomonas aeruginosa", "experiment": "Antibacterial activity against clinical isolate multi drug resistant Pseudomonas aeruginosa PA259-96918 assessed as bacterial growth inhibition measured after 18 hrs by broth microdilution assay"}, "[12]": {"test_system": "Pseudomonas aeruginosa", "experiment": "Antibacterial activity against clinical isolate multi drug resistant Pseudomonas aeruginosa PA260-97103 assessed as bacterial growth inhibition measured after 18 hrs by broth microdilution assay"}, "[13]": {"test_system": "Pseudomonas aeruginosa", "experiment": "Antibacterial activity against clinical isolate multi drug resistant Pseudomonas aeruginosa PA262-101856 assessed as bacterial growth inhibition measured after 18 hrs by broth microdilution assay"}, "[14]": {"test_system": "Pseudomonas aeruginosa", "experiment": "Antibacterial activity against clinical isolate multi drug resistant Pseudomonas aeruginosa PA264-104354 assessed as bacterial growth inhibition measured after 18 hrs by broth microdilution assay"}, "[15]": {"test_system": "Pseudomonas aeruginosa", "experiment": "Antibacterial activity against multi drug resistant Pseudomonas aeruginosa clinical isolate 100036 assessed as bacterial growth inhibition measured after 18 hrs by broth microdilution assay"}, "[16]": {"test_system": "Acinetobacter baumannii", "experiment": "Antibacterial activity against clinical isolate multi drug resistant Acinetobacter baumannii AB027 assessed as bacterial growth inhibition measured after 18 hrs by broth microdilution assay"}, "[17]": {"test_system": "Acinetobacter baumannii", "experiment": "Antibacterial activity against clinical isolate multi drug resistant Acinetobacter baumannii AB031 assessed as bacterial growth inhibition measured after 18 hrs by broth microdilution assay"}, "[18]": {"test_system": "Acinetobacter baumannii", "experiment": "Antibacterial activity against multi drug resistant Acinetobacter baumannii clinical isolate 92247 assessed as bacterial growth inhibition measured after 18 hrs by broth microdilution assay"}, "[19]": {"test_system": "Acinetobacter baumannii", "experiment": "Antibacterial activity against clinical isolate multi drug resistant Acinetobacter baumannii LAC-4 assessed as bacterial growth inhibition measured after 18 hrs by broth microdilution assay"}, "[20]": {"test_system": "Escherichia coli", "experiment": "Antibacterial activity against multi drug resistant Escherichia coli clinical isolate 94393 assessed as bacterial growth inhibition measured after 18 hrs by broth microdilution assay"}, "[21]": {"test_system": "Escherichia coli", "experiment": "Antibacterial activity against multi drug resistant Escherichia coli clinical isolate 94474 assessed as bacterial growth inhibition measured after 18 hrs by broth microdilution assay"}, "[22]": {"test_system": "Escherichia coli", "experiment": "Antibacterial activity against multi drug resistant Escherichia coli clinical isolate 107115 assessed as bacterial growth inhibition measured after 18 hrs by broth microdilution assay"}, "[23]": {"test_system": "Klebsiella pneumoniae", "experiment": "Antibacterial activity against multi drug resistant Klebsiella pneumoniae clinical isolate 113250 assessed as bacterial growth inhibition measured after 18 hrs by broth microdilution assay"}, "[24]": {"test_system": "Klebsiella pneumoniae", "experiment": "Antibacterial activity against multi drug resistant Klebsiella pneumoniae clinical isolate 113254 assessed as bacterial growth inhibition measured after 18 hrs by broth microdilution assay"}, "[25]": {"test_system": "Klebsiella pneumoniae", "experiment": "Antibacterial activity against multi drug resistant Klebsiella pneumoniae clinical isolate 116381 assessed as bacterial growth inhibition measured after 18 hrs by broth microdilution assay"}, "[26]": {"test_system": "Enterobacter cloacae", "experiment": "Antibacterial activity against multi drug resistant Enterobacter cloacae clinical isolate 117029 assessed as bacterial growth inhibition measured after 18 hrs by broth microdilution assay"}, "[27]": {"test_system": "Enterobacter cloacae", "experiment": "Antibacterial activity against multi drug resistant Enterobacter cloacae clinical isolate 118564 assessed as bacterial growth inhibition measured after 18 hrs by broth microdilution assay"}, "[28]": {"test_system": "Enterobacter cloacae", "experiment": "Antibacterial activity against multi drug resistant Enterobacter cloacae clinical isolate 121187 assessed as bacterial growth inhibition measured after 18 hrs by broth microdilution assay"}, "[29]": {"test_system": "Staphylococcus aureus", "experiment": "Antibacterial activity against Staphylococcus aureus ATCC 25923 assessed as bacterial growth inhibition measured after 24 hrs by agar dilution assay"}, "[30]": {"test_system": "Escherichia coli", "experiment": "Antibacterial activity against Escherichia coli ATCC 25922 assessed as bacterial growth inhibition measured after 24 hrs by agar dilution assay"}, "[31]": {"test_system": "Pseudomonas aeruginosa", "experiment": "Antibacterial activity against imipenem resistant Pseudomonas aeruginosa VIM-2 assessed as bacterial growth inhibition measured after 24 hrs by agar dilution assay"}, "[32]": {"test_system": "Enterobacter cloacae", "experiment": "Antibacterial activity against fosfomycin resistant Enterobacter cloacae assessed as bacterial growth inhibition measured after 24 hrs by agar dilution assay"}}}
{"smiles": "COc1c(N2CCN(C(=O)CN3CCN(CC(=O)O)CCN(CC(=O)O)CCN(CC(=O)O)CC3)C(C)C2)c(F)cc2c(=O)c(C(=O)O)cn(C3CC3)c12", "note": "(configuration not stated)", "values": [{"measurement": "MIC", "setting": "[1]", "value": 1.56, "unit": "µg/mL"}, {"measurement": "MIC", "setting": "[2]", "value": 3.12, "unit": "µg/mL"}]}
{"smiles": "C/C(=N\\O)c1ccc(NC(=O)C(C)N2CCN(c3cc4c(cc3F)c(=O)c(C(=O)O)cn4C3CC3)CC2)cc1", "note": "(configuration not stated)", "values": [{"measurement": "MIC", "setting": "[3]", "value": 0.38, "unit": "µg/mL"}, {"measurement": "MIC", "setting": "[4]", "value": 0.2, "unit": "µg/mL"}]}
{"smiles": "O=C(CN1CCN(c2cc3c(cc2F)c(=O)c(C(=O)O)cn3C2CC2)CC1)N/N=C/C=C/c1c(F)cccc1F", "values": [{"measurement": "MIC", "setting": "[5]", "value": "≤ 0.125", "unit": "µg/mL"}, {"measurement": "Ratio", "setting": "[6]", "value": ">=4"}]}
{"smiles": "COc1cccc2ccc(C(=O)N3CCN(c4cc5c(cc4F)c(=O)c(C(=O)O)cn5C4CC4)CC3)nc12", "values": [{"measurement": "MIC", "setting": "[7]", "value": 0.2, "unit": "µg/mL"}, {"measurement": "Ratio", "setting": "[8]", "value": 2}]}
{"smiles": "NC[C@@H]1O[C@@H](O[C@@H]2[C@@H](OCCCCCCCN3CCN(c4cc5c(cc4F)c(=O)c(C(=O)O)cn5C4CC4)CC3)[C@H](O[C@@H]3O[C@@H](CO)[C@H](O)[C@@H](N)[C@@H]3O)[C@@H](N)C[C@H]2N)[C@@H](N)C[C@H]1O", "values": [{"measurement": "MIC", "setting": "[9]", "value": "≥ 16", "unit": "µg/mL"}, {"measurement": "MIC", "setting": "[10]", "value": "≥ 16", "unit": "µg/mL"}, {"measurement": "MIC", "setting": "[11]", "value": "≥ 16", "unit": "µg/mL"}, {"measurement": "MIC", "setting": "[12]", "value": "≥ 16", "unit": "µg/mL"}, {"measurement": "MIC", "setting": "[13]", "value": "≥ 16", "unit": "µg/mL"}, {"measurement": "MIC", "setting": "[14]", "value": "≥ 16", "unit": "µg/mL"}, {"measurement": "MIC", "setting": "[15]", "value": "≥ 16", "unit": "µg/mL"}, {"measurement": "MIC", "setting": "[16]", "value": "≥ 16", "unit": "µg/mL"}, {"measurement": "MIC", "setting": "[17]", "value": "≥ 16", "unit": "µg/mL"}, {"measurement": "MIC", "setting": "[18]", "value": "≥ 16", "unit": "µg/mL"}, {"measurement": "MIC", "setting": "[19]", "value": "≥ 16", "unit": "µg/mL"}, {"measurement": "MIC", "setting": "[20]", "value": "≥ 16", "unit": "µg/mL"}, {"measurement": "MIC", "setting": "[21]", "value": "≥ 16", "unit": "µg/mL"}, {"measurement": "MIC", "setting": "[22]", "value": "≥ 16", "unit": "µg/mL"}, {"measurement": "MIC", "setting": "[23]", "value": "≥ 16", "unit": "µg/mL"}, {"measurement": "MIC", "setting": "[24]", "value": "≥ 16", "unit": "µg/mL"}, {"measurement": "MIC", "setting": "[25]", "value": "≥ 16", "unit": "µg/mL"}, {"measurement": "MIC", "setting": "[26]", "value": "≥ 16", "unit": "µg/mL"}, {"measurement": "MIC", "setting": "[27]", "value": "≥ 16", "unit": "µg/mL"}, {"measurement": "MIC", "setting": "[28]", "value": "≥ 16", "unit": "µg/mL"}]}
{"smiles": "CCOP(=O)(OCC)C(Nc1ncc(-c2cc3ccccc3oc2=O)s1)c1cc2ccccc2[nH]c1=O", "note": "(configuration not stated)", "values": [{"measurement": "MIC", "setting": "[29]", "value": 0.25, "unit": "µg/mL"}, {"measurement": "MIC", "setting": "[30]", "value": 0.25, "unit": "µg/mL"}, {"measurement": "MIC", "setting": "[31]", "value": 0.25, "unit": "µg/mL"}, {"measurement": "MIC", "setting": "[32]", "value": 0.25, "unit": "µg/mL"}]}
